The target in this assay is human PDE1B enzyme (Homo sapiens (Human), UniProt Q01064). As to the kind of experiment: IMAP TR-FRET PDE1B enzymatic assay. The class given is biochemical. The settings on record: negative log of half-maximal molar inhibitory concentration, 200 nM FAM-cAMP, values given as bins; for IC50: read-out: PDE1b (pIC50) (converted). Put shortly: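 Full-length GST-tagged human PDE1B (250 pg/well) in IMAP BSA buffer with 10 U/ml calmodulin and 2.5 mM CaCl2; compound pre-incubated 5 min at room temperature, then 200 nM (final) FAM-cAMP for 30 min. IMAP binding reagent/Tb added, 1 h; TR-FRET 520/490 ratio read. IC50 from sigmoidal dose-response fit.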
On the technique in general: Time-resolved FRET reads energy transfer from a long-lived donor to a nearby acceptor.

Consider 32 compounds from patent publication US20250145633A1, “SUBSTITUTED FURANOPYRIMIDINE COMPOUNDS AS PDE1 INHIBITORS” (Dart NeuroScience, LLC, priority 2017, published 2025).

Structures are written as SMILES.

For `Cc1oc2ncnc(NC3(C)CC3)c2c1C(=O)N(C)c1cnn(C)c1` [Example 469, N,6-Dimethyl-N-(1-methyl-1H-pyrazol-4-yl)-4-[(1-methylcyclopropyl)amino]furo[2,3-d]pyrimidine-5-carboxamide], the IC50 was 0.1 to 1 µM.

As to `Cc1oc2ncnc(NC3(C)CC3)c2c1C(=O)N(C)c1cnn(C(C)C)c1` [Example 470, N,6-Dimethyl-4-[(1-methylcyclopropyl)amino]-N-[1-(propan-2-yl)-1H-pyrazol-4-yl]furo[2,3-d]pyrimidine-5-carboxamide], the IC50 was 0.1 to 1 µM.

With `Cc1oc2ncnc(NC3(C)CC3)c2c1C(=O)N1CCc2cncnc2C1` [Example 471, 6-Methyl-N-(1-methylcyclopropyl)-5-f{5H,6H,7H,8H-pyrido[3,4-d]pyrimidine-7-carbonyl}furo[2,3-d]pyrimidin-4-amine], the IC50 is 0.01 to 0.1 µM.

As for `Cc1oc2ncnc(NC3(C)CC3)c2c1C(=O)Nc1cnn(Cc2ccccn2)c1` [Example 472, 6-Methyl-4-[(1-methylcyclopropyl)amino]-N-[1-(pyridin-2-ylmethyl)-1H-pyrazol-4-yl]furo[2,3-d]pyrimidine-5-carboxamide], the IC50 was 0.01 to 0.1 µM.

Take `Cc1oc2ncnc(NC3(C)CC3)c2c1C(=O)Nc1cnn(-c2ncccn2)c1` [Example 473, 6-Methyl-4-[(1-methylcyclopropyl)amino]-N-[1-(pyrimidin-2-yl)-1H-pyrazol-4-yl]furo[2,3-d]pyrimidine-5-carboxamide]: the IC50 is 0.01 to 0.1 µM.

In the case of `CCC(NC(=O)c1c(C)oc2ncnc(NC3(C)CC3)c12)c1ccc(OC)cc1` (centres unmarked) [Example 475, N-[1-(4-Methoxyphenyl)propyl]-6-methyl-4-[(1-methylcyclopropyl)amino]furo[2,3-d]pyrimidine-5-carboxamide], the “PDE1b (pIC50)” value was >8.

Turning to `COc1ccc(CNC(=O)c2c(C)oc3ncnc(NC4(C)CC4)c23)cc1F` [Example 483, N-[(3-Fluoro-4-methoxyphenyl)methyl]-6-methyl-4-[(1-methylcyclopropyl)amino]furo[2,3-d]pyrimidine-5-carboxamide], the “PDE1b (pIC50)” value was >8.

Regarding `COc1cc(CNC(=O)c2c(C)oc3ncnc(NC4(C)CC4)c23)ccc1O` [Example 487, N-[(4-Hydroxy-3-methoxyphenyl)methyl]-6-methyl-4-[(1-methylcyclopropyl)amino]furo[2,3-d]pyrimidine-5-carboxamide], the IC50 is 0.01 to 0.1 µM.

With `COc1ccc(CNC(=O)c2c(C)oc3ncnc(NC4(C)CC4)c23)cc1Cl` [Example 488, N-[(3-Chloro-4-methoxyphenyl)methyl]-6-methyl-4-[(1-methylcyclopropyl)amino]furo[2,3-d]pyrimidine-5-carboxamide], the “PDE1b (pIC50)” value is >8.

On to `CCN(Cc1ccc(OC)cc1)C(=O)c1c(C)oc2ncnc(NC3(C)CC3)c12` [Example 489, N-ethyl-N-[(4-Methoxyphenyl)methyl]-6-methyl-4-[(1-methylcyclopropyl)amino]furo[2,3-d]pyrimidine-5-carboxamide], for which the IC50 was 0.01 to 0.1 µM.

In the case of `COc1cc(CNC(=O)c2c(C)oc3ncnc(NC4(C)CC4)c23)cc(OC)c1` [Example 495, N-[(3,5-Dimethoxyphenyl)methyl]-6-methyl-4-[(1-methylcyclopropyl)amino]furo[2,3-d]pyrimidine-5-carboxamide], the IC50 was 0.01 to 0.1 µM.

On to `COc1c(C)cnc(CN(C)C(=O)c2c(C)oc3ncnc(NC4(C)CC4)c23)c1C` [Example 498, N-[(4-Methoxy-3,5-dimethylpyridin-2-yl)methyl]-N,6-dimethyl-4-[(1-methylcyclopropyl)amino]furo[2,3-d]pyrimidine-5-carboxamide], for which the IC50 was 0.01 to 0.1 µM.

With `Cc1oc2ncnc(NC3(C)CC3)c2c1C(=O)N1C[C@H]2CC[C@@H](C1)O2` [Example 499, 6-Methyl-N-(1-methylcyclopropyl)-5-[(1R,5S)-8-oxa-3-azabicyclo[3.2.1]octane-3-carbonyl]furo[2,3-d]pyrimidin-4-amine], the IC50 is 0.1 to 1 µM.

In the case of `COc1ccc(C(C)NC(=O)c2c(C)oc3ncnc(NC4(C)CC4)c23)cc1C` (centres unmarked) [Example 502, N-[1-(4-Methoxy-3-methylphenyl)ethyl]-6-methyl-4-[(1-methylcyclopropyl)amino]furo[2,3-d]pyrimidine-5-carboxamide], the “PDE1b (pIC50)” value was >8.

Regarding `C=CCN(Cc1ccc(OC)cc1)C(=O)c1c(C)oc2ncnc(NC3(C)CC3)c12` [Example 508, N-[(4-Methoxyphenyl)methyl]-6-methyl-4-[(1-methylcyclopropyl)amino]-N-(prop-2-en-1-yl)furo[2,3-d]pyrimidine-5-carboxamide], the IC50 was 0.01 to 0.1 µM.

For `CCOc1ccc(CNC(=O)c2c(C)oc3ncnc(NC4(C)CC4)c23)cc1OC` [Example 509, N-[(4-Ethoxy-3-methoxyphenyl)methyl]-6-methyl-4-[(1-methylcyclopropyl)amino]furo[2,3-d]pyrimidine-5-carboxamide], the IC50 was 0.01 to 0.1 µM.

Take `COc1ccc(C(C)N(C)C(=O)c2c(C)oc3ncnc(NC4(C)CC4)c23)cc1F` (centres unmarked) [Example 510, N-[1-(3-Fluoro-4-methoxyphenyl)ethyl]-N,6-dimethyl-4-[(1-methylcyclopropyl)amino]furo[2,3-d]pyrimidine-5-carboxamide]: the IC50 was 0.01 to 0.1 µM.

For the compound `Cc1oc2ncnc(NC3(C)CC3)c2c1C(=O)NC(CO)c1ccc(F)cc1` (centres unmarked) [Example 513, N-[1-(4-Fluorophenyl)-2-hydroxyethyl]-6-methyl-4-[(1-methylcyclopropyl)amino]furo[2,3-d]pyrimidine-5-carboxamide], the IC50 was 0.01 to 0.1 µM.

For the compound `C#CC(C)(C)NC(=O)c1c(C)oc2ncnc(NC3(C)CC3)c12` [Example 520, 6-Methyl-N-(2-methylbut-3-yn-2-yl)-4-[(1-methylcyclopropyl)amino]furo[2,3-d]pyrimidine-5-carboxamide], the IC50 was 0.01 to 0.1 µM.

`Cc1oc2ncnc(NC3(C)CC3)c2c1C(=O)N1CCN(c2ccc(F)cc2S(C)(=O)=O)CC1` [Example 521]: the IC50 was 0.01 to 0.1 µM.

For `Cc1oc2ncnc(NC3(C)CC3)c2c1C(=O)N1CCN(c2ccc(S(C)(=O)=O)cc2F)CC1C` (centres unmarked) [Example 522, 5-[4-(2-Fluoro-4-methanesulfonylphenyl)-2-methylpiperazine-1-carbonyl]-6-methyl-N-(1-methylcyclopropyl)furo[2,3-d]pyrimidin-4-amine], the IC50 is 0.01 to 0.1 µM.

In the case of `COc1ccc(CNC(=O)c2c(C)oc3ncnc(NC4(C)CC4)c23)c(C)c1` [Example 524, N-[(4-Methoxy-2-methylphenyl)methyl]-6-methyl-4-[(1-methylcyclopropyl)amino]furo[2,3-d]pyrimidine-5-carboxamide], the IC50 was 0.01 to 0.1 µM.

Turning to `COc1cc(F)ccc1CNC(=O)c1c(C)oc2ncnc(NC3(C)CC3)c12` [Example 525, N-[(4-Fluoro-2-methoxyphenyl)methyl]-6-methyl-4-[(1-methylcyclopropyl)amino]furo[2,3-d]pyrimidine-5-carboxamide], the IC50 is 0.01 to 0.1 µM.

Turning to `COc1ccccc1CN(C)C(=O)c1c(C)oc2ncnc(NC3(C)CC3)c12` [Example 528, N-[(2-Methoxyphenyl)methyl]-N,6-dimethyl-4-[(1-methylcyclopropyl)amino]furo[2,3-d]pyrimidine-5-carboxamide], the IC50 was 0.01 to 0.1 µM.

Turning to `Cc1oc2ncnc(NC3(C)CC3)c2c1C(=O)N1CCC(c2ncccc2F)C1` (centres unmarked) [Example 529, 5-[3-(3-Fluoropyridin-2-yl)pyrrolidine-1-carbonyl]-6-methyl-N-(1-methylcyclopropyl)furo[2,3-d]pyrimidin-4-amine], the IC50 is 0.01 to 0.1 µM.

In the case of `COc1ccc(C2CCN(C(=O)c3c(C)oc4ncnc(NC5(C)CC5)c34)CC2)nc1F` [Example 530, 5-[4-(6-Fluoro-5-methoxypyridin-2-yl)piperidine-1-carbonyl]-6-methyl-N-(1-methylcyclopropyl)furo[2,3-d]pyrimidin-4-amine], the IC50 is 0.01 to 0.1 µM.

In the case of `Cc1oc2ncnc(NC3(C)CC3)c2c1C(=O)N1CCC(c2cccc(F)n2)C1` (centres unmarked) [Example 532, 5-[3-(6-Fluoropyridin-2-yl)pyrrolidine-1-carbonyl]-6-methyl-N-(1-methylcyclopropyl)furo[2,3-d]pyrimidin-4-amine], the “PDE1b (pIC50)” value was >8.

For `Cc1oc2ncnc(NC3(C)CC3)c2c1C(=O)NCc1cc(C#N)ccc1F` [Example 533, N-[(5-Cyano-2-fluorophenyl)methyl]-6-methyl-4-[(1-methylcyclopropyl)amino]furo[2,3-d]pyrimidine-5-carboxamide], the “PDE1b (pIC50)” value is given as >8.

Turning to `Cc1oc2ncnc(NC3(C)CC3)c2c1C(=O)NCc1ccc(Cl)cc1F` [Example 534, N-[(4-Chloro-2-fluorophenyl)methyl]-6-methyl-4-[(1-methylcyclopropyl)amino]furo[2,3-d]pyrimidine-5-carboxamide], the IC50 was 0.01 to 0.1 µM.

Regarding `Cc1oc2ncnc(NC3(C)CC3)c2c1C(=O)N1CCNC(c2ccc(F)cc2)C1` (centres unmarked) [Example 536, 5-[3-(4-Fluorophenyl)piperazine-1-carbonyl]-6-methyl-N-(1-methylcyclopropyl)furo[2,3-d]pyrimidin-4-amine], the “PDE1b (pIC50)” value is >8.

As to `COc1ccc(CCNC(=O)c2c(C)oc3ncnc(NC4(C)CC4)c23)cc1OC` [Example 545, N-[2-(3,4-Dimethoxyphenyl)ethyl]-6-methyl-4-[(1-methylcyclopropyl)amino]furo[2,3-d]pyrimidine-5-carboxamide], the IC50 is 0.01 to 0.1 µM.

For the compound `COc1cccc(F)c1CNC(=O)c1c(C)oc2ncnc(NC3(C)CC3)c12` [Example 547, N-[(2-Fluoro-6-methoxyphenyl)methyl]-6-methyl-4-[(1-methylcyclopropyl)amino]furo[2,3-d]pyrimidine-5-carboxamide], the IC50 is 0.01 to 0.1 µM.
